Results reported in patent US20250277012A1 (Protagonist Therapeutics, Inc., priority 2021, published 2025).
Starred links: 1 amine or outer side, 2 acyl side, 3 side chain; linkers in the order of their positions; H or OH if unused. Positions of bridges follow the written chain, without caps; N, C: chain ends. Non-standard residues stand in square brackets, D forms with d. Residues, ends and D or L forms follow the SMILES beside them. Groups on a side chain read outwards from the residue. ξ: configuration not given here. *: point of attachment. X1 = C[N+](C)(CCNC(=O)CCCCCCCCCCCCCCCCC(=O)O)CC(=O)*; X5 = CCCCCCCCCCCCCCCC(=O)NCC[N+](C)(C)CC(=O)*; C18 diacid = O=C(O)CCCCCCCCCCCCCCCCC(=O)*; Dip = N[C@H](C(=O)O)C(c1ccccc1)c1ccccc1; Pro(3R-OH) = O=C(O)[C@H]1NCC[C@H]1O; Ethylenediamine = C(CN[*:2])N[*:1]; Palmitoyl = CCCCCCCCCCCCCCCC(=O)*; NMeT = CN[C@H](C(=O)O)[C@@H](C)O; β3hF = N[C@H](CC(=O)O)Cc1ccccc1; Aad = N[C@@H](CCCC(=O)O)C(=O)O; NMeK = CN[C@@H](CCCCN)C(=O)O; Isovaleryl = CC(C)CC(=O)*; Dap = NC[C@H](N)C(=O)O; AEEA = NCCOCCOCC(=O)O; Ahx = NCCCCCC(=O)O; ξC = NC(CS)C(=O)O

target: T1, ferroportin (Homo sapiens, UniProt Q9NP59); assay: T47D cell-based ferroportin internalization assay in presence of mouse serum albumin (MSA); design: a human breast carcinoma adherent cell line which endogenously expresses ferroportin; host or cells: T47D; conditions: T47D internalization assay in presence of mouse serum albumin (MSA); Table 6E
T1 sequence (Q9NP59 1-571): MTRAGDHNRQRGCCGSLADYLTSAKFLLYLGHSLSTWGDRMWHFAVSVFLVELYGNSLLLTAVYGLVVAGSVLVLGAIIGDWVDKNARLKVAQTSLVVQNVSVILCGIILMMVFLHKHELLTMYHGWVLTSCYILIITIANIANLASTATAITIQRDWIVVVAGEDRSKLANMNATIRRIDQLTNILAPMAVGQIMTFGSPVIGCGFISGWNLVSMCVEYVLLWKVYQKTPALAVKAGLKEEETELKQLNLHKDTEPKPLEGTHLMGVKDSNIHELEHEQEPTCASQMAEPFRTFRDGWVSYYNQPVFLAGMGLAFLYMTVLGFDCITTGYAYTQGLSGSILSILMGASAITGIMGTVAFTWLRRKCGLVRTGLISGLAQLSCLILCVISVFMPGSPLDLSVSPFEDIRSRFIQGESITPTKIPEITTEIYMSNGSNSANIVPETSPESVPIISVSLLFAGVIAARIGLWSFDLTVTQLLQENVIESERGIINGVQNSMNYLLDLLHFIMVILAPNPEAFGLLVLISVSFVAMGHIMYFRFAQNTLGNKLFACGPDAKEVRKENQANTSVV
Method in brief: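 Peptide potency for inducing ferroportin internalization was measured in T47D cells in the presence of serum albumin. Cells grown in RPMI with fetal bovine serum were seeded in 96-well plates at 80-100 k cells per well in 100 ul and rested overnight. Dilution series of test peptides were preincubated 30 min at room temperature, then added to the cells after the medium was aspirated.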

Structure (SMILES) | IC50
COC(=O)CC[C@H](NC(=O)CC(C)C)C(=O)N[C@H](C(=O)N[C@@H](Cc1c[nH]cn1)C(=O)N[C@H](C(=O)N1CCC[C@H]1C(=O)N[C@H]1CSSC[C@@H](C(=O)N(C)[C@@H](CCCCNC(=O)COCCOCCNC(=O)COCCOCCNC(=O)C[N+](C)(C)CCNC(=O)CCCCCCCCCCCCCCCCC(=O)O)C(=O)N[C@H](C(=O)N[C@H](CCCCN)C(N)=O)C(c2ccccc2)c2ccccc2)NC1=O)C(c1ccccc1)c1ccccc1)[C@@H](C)O [compound 230] (Isovaleryl-E(OMe)TH[Dip]PCC[NMeK]([AEEA-AEEA-X1])[Dip][dK]-NH2; disulfide 6-7) | 10 to 100 nM
CC(C)CC(=O)N[C@@H](CCCC(=O)O)C(=O)N[C@H](C(=O)N[C@@H](Cc1c[nH]cn1)C(=O)N[C@H](C(=O)N1CCC[C@H]1C(=O)N[C@H]1CSSC[C@@H](C(=O)N(C)[C@@H](CCCCNC(=O)COCCOCCNC(=O)COCCOCCNC(=O)[C@H](CN)NC(=O)CCCCCCCCCCCCCCCCC(=O)O)C(=O)N[C@H](CC(=O)N[C@H](CCCCN)C(N)=O)Cc2ccccc2)NC1=O)C(c1ccccc1)c1ccccc1)[C@@H](C)O [compound 244] (Isovaleryl-[Aad]TH[Dip]PCC[NMeK]([AEEA-AEEA-Dap-C18 diacid])[β3hF][dK]-NH2; disulfide 6-7) | 10 to 100 nM

same assay, conditions: Table 6E; T47D internalization assay with MSA

Structure (SMILES) | IC50
CCCCCCCCCCCCCCCC(=O)NCC[N+](C)(C)CC(=O)NCCCC[C@@H](C(=O)N[C@H](C(=O)N[C@H](CCCCN)C(N)=O)C(c1ccccc1)c1ccccc1)N(C)C(=O)[C@@H]1CSSC[C@H](NC(=O)[C@@H]2CCCN2C(=O)[C@@H](NC(=O)[C@H](Cc2cnc[nH]2)NC(=O)[C@@H]2[C@H](O)CCN2C(=O)[C@H](CCC(=O)O)NC(=O)CC(C)C)C(c2ccccc2)c2ccccc2)C(=O)N1 [compound 152] (Isovaleryl-E[Pro(3R-OH)]H[Dip]PCC[NMeK](X5)[Dip][dK]-NH2; disulfide 6-7) | 1 to 10 nM
CC(C)CC(=O)N[C@@H](CCC(=O)O)C(=O)N1CC[C@@H](O)[C@H]1C(=O)N[C@@H](Cc1c[nH]cn1)C(=O)N[C@H](C(=O)N1CCC[C@H]1C(=O)N[C@H]1CSSC[C@@H](C(=O)N(C)[C@@H](CCCCNC(=O)CCCCCNC(=O)C[N+](C)(C)CCNC(=O)CCCCCCCCCCCCCCCCC(=O)O)C(=O)N[C@H](C(N)=O)C(c2ccccc2)c2ccccc2)NC1=O)C(c1ccccc1)c1ccccc1 [compound 154] (Isovaleryl-E[Pro(3R-OH)]H[Dip]PCC[NMeK]([Ahx-X1])[Dip]-NH2; disulfide 6-7) | 10 to 100 nM
COC(=O)CC[C@H](NC(=O)CC(C)C)C(=O)N[C@H](C(=O)N[C@@H](Cc1c[nH]cn1)C(=O)N[C@H](C(=O)N1CCC[C@H]1C(=O)N[C@H]1CSSC[C@@H](C(=O)N[C@@H](CCCCNC(=O)CCCCCNC(=O)C[N+](C)(C)CCNC(=O)CCCCCCCCCCCCCCCCC(=O)O)C(=O)N[C@H](C(=O)N[C@H](CCCCN)C(N)=O)C(c2ccccc2)c2ccccc2)NC1=O)C(c1ccccc1)c1ccccc1)[C@@H](C)O [compound 211] (Isovaleryl-E(OMe)TH[Dip]PCCK([Ahx-X1])[Dip][dK]-NH2; disulfide 6-7) | 10 to 100 nM
CCCCCCCCCCCCCCCC(=O)NCCCCCC(=O)NCCCC[C@@H](C(=O)N[C@H](C(=O)NCCN)C(c1ccccc1)c1ccccc1)N(C)C(=O)C1CSSC[C@H](NC(=O)[C@@H]2CCCN2C(=O)[C@@H](NC(=O)[C@H](Cc2c[nH]cn2)NC(=O)[C@@H](NC(=O)[C@H](CCC(=O)O)NC(=O)CC(C)C)[C@@H](C)O)C(c2ccccc2)c2ccccc2)C(=O)N1 (stereo partly drawn) [compound 164] (Isovaleryl-ETH[Dip]PC[ξC][NMeK]([Ahx-Palmitoyl])[Dip]-Ethylenediamine; disulfide 6-7) | 1 to 10 nM
CC(C)CC(=O)N[C@@H](CCC(=O)O)C(=O)N1CC[C@@H](O)[C@H]1C(=O)N[C@@H](Cc1c[nH]cn1)C(=O)N[C@H](C(=O)N1CCC[C@H]1C(=O)N[C@H]1CSSC[C@@H](C(=O)N(C)[C@@H](CCCCNC(=O)CCCCCNC(=O)C[N+](C)(C)CCNC(=O)CCCCCCCCCCCCCCCCC(=O)O)C(=O)N[C@H](C(=O)N(C)[C@@H](CCCCN)C(N)=O)C(c2ccccc2)c2ccccc2)NC1=O)C(c1ccccc1)c1ccccc1 [compound 156] (Isovaleryl-E[Pro(3R-OH)]H[Dip]PCC[NMeK]([Ahx-X1])[Dip][NMeK]-NH2; disulfide 6-7) | 10 to 100 nM
COC(=O)CC[C@H](NC(=O)CC(C)C)C(=O)N(C)[C@H](C(=O)N[C@@H](Cc1c[nH]cn1)C(=O)N[C@H](C(=O)N1CCC[C@H]1C(=O)N[C@H]1CSSC[C@@H](C(=O)N(C)[C@@H](CCCCNC(=O)CCCCCNC(=O)C[N+](C)(C)CCNC(=O)CCCCCCCCCCCCCCCCC(=O)O)C(=O)N[C@H](C(=O)N(C)[C@@H](CCCCN)C(N)=O)C(c2ccccc2)c2ccccc2)NC1=O)C(c1ccccc1)c1ccccc1)[C@@H](C)O [compound 153] (Isovaleryl-E(OMe)[NMeT]H[Dip]PCC[NMeK]([Ahx-X1])[Dip][NMeK]-NH2; disulfide 6-7) | 100 to 500 nM
CC(C)CC(=O)N[C@@H](CCC(=O)O)C(=O)N[C@H](C(=O)N[C@@H](Cc1cnc[nH]1)C(=O)N[C@H](C(=O)N1CCC[C@H]1C(=O)N[C@H]1CSSC[C@@H](C(=O)N(C)[C@@H](CCCCNC(=O)COCCOCCNC(=O)COCCOCCNC(=O)C[N+](C)(C)CCNC(=O)CCCCCCCCCCCCCCCCC(=O)O)C(=O)N[C@H](CC(=O)N[C@H](CCCCN)C(N)=O)Cc2ccccc2)NC1=O)C(c1ccccc1)c1ccccc1)[C@@H](C)O [compound 159] (Isovaleryl-ETH[Dip]PCC[NMeK]([AEEA-AEEA-X1])[β3hF][dK]-NH2; disulfide 6-7) | 10 to 100 nM
CC(C)CC(=O)N[C@@H](CCC(=O)O)C(=O)N[C@H](C(=O)N[C@@H](Cc1c[nH]cn1)C(=O)N[C@H](C(=O)N1CCC[C@H]1C(=O)N[C@H]1CSSC[C@@H](C(=O)N(C)[C@@H](CCCCNC(=O)COCCOCCNC(=O)COCCOCCNC(=O)C[N+](C)(C)CCNC(=O)CCCCCCCCCCCCCCCCC(=O)O)C(=O)N[C@H](C(=O)N[C@H](CCCCN)C(N)=O)C(c2ccccc2)c2ccccc2)NC1=O)C(c1ccccc1)c1ccccc1)[C@@H](C)O [compound 158] (Isovaleryl-ETH[Dip]PCC[NMeK]([AEEA-AEEA-X1])[Dip][dK]-NH2; disulfide 6-7) | 10 to 100 nM
CCCCCCCCCCCCCCCC(=O)NCCCCCC(=O)NCCCC[C@@H](C(=O)N[C@H](C(=O)N[C@H](CCCCN)C(N)=O)C(c1ccccc1)c1ccccc1)N(C)C(=O)[C@@H]1CSSC[C@H](NC(=O)[C@@H]2CCCN2C(=O)[C@@H](NC(=O)[C@H](Cc2cnc[nH]2)NC(=O)[C@@H]2CCCN2C(=O)[C@H](CCC(=O)O)NC(=O)CC(C)C)C(c2ccccc2)c2ccccc2)C(=O)N1 [compound 171] (Isovaleryl-EPH[Dip]PCC[NMeK]([Ahx-Palmitoyl])[Dip][dK]-NH2; disulfide 6-7) | 1 to 10 nM
CCCCCCCCCCCCCCCC(=O)NCC[N+](C)(C)CC(=O)NCCCC[C@@H](C(=O)N[C@H](C(N)=O)C(c1ccccc1)c1ccccc1)N(C)C(=O)[C@@H]1CSSC[C@H](NC(=O)[C@@H]2CCCN2C(=O)[C@@H](NC(=O)[C@H](Cc2cnc[nH]2)NC(=O)[C@@H]2[C@H](O)CCN2C(=O)[C@H](CCC(=O)O)NC(=O)CC(C)C)C(c2ccccc2)c2ccccc2)C(=O)N1 [compound 150] (Isovaleryl-E[Pro(3R-OH)]H[Dip]PCC[NMeK](X5)[Dip]-NH2; disulfide 6-7) | 1 to 10 nM
